18 compounds from patent publication US20230172929A1, “NOVEL PERIPHERAL CANNABINOID-1 RECEPTOR ANTAGONISTS” (Yissum Research Development Company of the Hebrew …, priority 2019, published 2023) can be followed below.

Series [1] deals with T1, CB1R (Mus musculus, UniProt P47746).
T1 construct: crude membranes from mouse brain for CB1R; from tissue; host or cells: mouse brain, crude membranes
Nature of the series: [35S]GTPγS binding, with and without CB1R agonist HU-210. It is filed as biochemical. The note with it: mouse brain membranes, compounds at 10 μM, with and without HU-210 (100 nM). Here is the method: [^35S]GTPγS binding: Mouse brains (CB1R) or human cell membranes (CB2R) were dissected and P2 membranes prepared and resuspended at ˜2 μg protein/μL in 1 mL assay buffer (50 mM Tris HCl, 9 mM MgCl2, 0.2 mM EGTA, 150 mM NaCl; pH 7.4). Ligand-stimulated [^35S]GTPγS binding was assayed as described previously. Briefly, membranes (10 μg protein) were incubated in assay buffer containing 100 μM GDP, 0.05 nM [^35S]GTPγS, test compounds (HU-210, CP55,940 and tested molecules) at 10 μM, and 1.4 mg/mL fatty acid-free BSA in siliconized glass tubes. Bound ligand was separated from free ligand by vacuum filtration. Non-specific binding was determined using 10 μM GTPS. Basal binding was assayed in the absence of the ligand and in the presence of GDP.
The test was performed for each compound with and without the CB1R agonist HU-210 (100 nM).
For orientation: Binding of GTPγS marks nucleotide exchange on a G protein.

The target in series [2] is T1, CB1R. Nature of the series: Radioligand binding assay, competition displacement of [3H]CP-55,940, CB1R. Here is the method: Radioligand binding assays: Binding to CB1R and CB2R was assessed in competition displacement assays using [3^H]CP-55,940 as the radioligand and crude membranes from mouse brain for CB1R or human cell membrane for CB2R, as reported previously. All data were in triplicates with Ki values determined from three independent experiments.
CB1R binding: The actual affinity of the 14 candidates was tested in a CB1R competitive binding assay.
(In a radioligand displacement assay an active substance lowers the binding of a labelled ligand.)

Series [3] can be described thus: Tissue levels of antagonists (brain, serum) by LC-MS/MS. The note with it: 1 hour after single dose. Format: in vivo, mice. How it is done: Blood was collected, and the mice were perfused with phosphate buffered saline for 1 min to remove drug from the intravascular space before removing the brain and liver. Drug levels in tissue homogenates and plasma were determined by using LC-MS/MS.

Another series deals with mice. Nature of the series: Locomotor activity, CB1R-mediated hyperactivity. The following applies: 10 mg/kg ip. Format: in vivo. An excerpt: Locomotor Activity: Locomotor activity was quantified by the number of disruptions of infrared XYZ beam arrays with a beam spacing of 0.25 cm in the Promethion High-Definition Behavioral Phenotyping System (Sable Instruments, Inc., Las Vegas, Nev., USA).
We next tested whether the reduced brain penetrance of Compound 8/Compound 4 is associated with an attenuation of behavioral effects.

Setting [4] is: CB1R competitive binding, mouse brain membranes, [3H]CP-55,940, read-out: Ki.
The mark [5] stands for this setting: CB1R competitive binding, values in text, read-out: CB1R Ki.
The mark [6] stands for this setting: Mix (not separated), read-out: Ki (μM) Mix.
Setting [7] is: separated isomer R, read-out: Ki (μM) R.

“Also recorded” adds a separate entry of the source. Like-named read-outs stand apart in the source and are kept apart here.

T1 sequence (P47746 whole entry): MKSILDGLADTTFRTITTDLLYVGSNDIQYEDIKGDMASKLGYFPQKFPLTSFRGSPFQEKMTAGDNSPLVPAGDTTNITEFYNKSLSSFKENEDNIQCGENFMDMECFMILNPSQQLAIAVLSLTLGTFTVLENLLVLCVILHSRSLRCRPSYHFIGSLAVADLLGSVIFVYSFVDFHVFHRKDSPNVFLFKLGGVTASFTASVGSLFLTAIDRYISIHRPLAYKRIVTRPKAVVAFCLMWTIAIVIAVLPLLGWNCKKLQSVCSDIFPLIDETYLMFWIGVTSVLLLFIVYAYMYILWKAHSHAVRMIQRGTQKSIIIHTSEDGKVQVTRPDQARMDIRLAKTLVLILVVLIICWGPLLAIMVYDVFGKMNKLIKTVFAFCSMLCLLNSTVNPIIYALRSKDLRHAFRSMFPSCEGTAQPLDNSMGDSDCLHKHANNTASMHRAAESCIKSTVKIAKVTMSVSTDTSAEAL

One may read the Ki as the dissociation constant of the complex between target and ligand, obtained from inhibition or displacement. For `Cc1ccc(C(=O)C2SC(Nc3ccc(Cl)cc3)=C(C(=O)Nc3ccc(Cl)cc3)C2=N)cc1` (centres unmarked) [Compound 11], at CB1R [1], the “activity (agonism, antagonism, inverse agonism) properties” value is reported as “inverse agonists”. Moreover, the Ki at CB1R [2] (setting [4]) stood at 1.3 µM.
Take `CC1=C(C(=O)Nc2ccccc2C(F)(F)F)C(c2ccc(OCc3ccccc3)cc2)NC(=S)N1` (centres unmarked) [Compound 8]: in series [3] (mice, 3, 10 and 30 mg/kg ip), the “brain penetrance (brain levels vs serum levels)” value is “markedly reduced brain penetrance”. Further, on CB1R [1], the “activity (agonism, antagonism, inverse agonism) properties” value is on record as “inverse agonists”. The Ki on CB1R [2] (setting [4]) is 0.408 µM; at CB1R [2] (setting [5]), about 0.4 µM; on CB1R [2] (setting [6]) it was 0.346 µM.
`CC(NC(=O)Nc1ccccc1)C(=O)NCC(c1ccccc1Cl)c1c[nH]c2ccccc12` (centres unmarked) [Compound 7]: the Ki on CB1R [2] (setting [4]) came out at 3.9 µM.
Take `CC(=O)c1cccc(S(=O)(=O)NCCC(=O)NCC(c2ccccc2Cl)c2c[nH]c3ccccc23)c1` (single isomer, unassigned) [Compound 3-R]: the Ki on CB1R [2] (setting [7]) came to 1.3 µM.
For `CC(C)C(NC(=O)c1ccco1)C(=O)NCC(c1ccccc1Cl)c1c[nH]c2ccccc12` (centres unmarked) [Compound 4], at CB1R [1], the “activity (agonism, antagonism, inverse agonism) properties” value is recorded as “neutral antagonism; also recorded: antagonist”. The Ki at CB1R [2] (setting [4]) was 1.1 µM; on CB1R [2] (setting [6]) it was 1 µM.
For `CC1=C(C(=O)Nc2ccccc2C(F)(F)F)C(c2cccc(Oc3ccccc3)c2)NC(=S)N1` (centres unmarked) [Compound 2], in that order: “inverse agonists”, 2.1 µM and 3.36 µM.
Turning to `Cc1ccc(NC(=S)Nc2ccc(C(C)C)cc2)c(S(=O)(=O)Nc2ccc(Cl)cc2)c1` [Compound 12], the “activity (agonism, antagonism, inverse agonism) properties” value at CB1R [1] is recorded as “inverse agonists”. In addition, the Ki at CB1R [2] (setting [4]) came out at 3.4 µM.
`CC1=C(C(=O)Nc2ccccc2C(F)(F)F)C(c2cccc(Oc3ccccc3)c2)NC(=S)N1` (single isomer, unassigned) [Compound 2-S]: on CB1R [2] (separated isomer S, read-out: Ki (μM) S), the Ki was 6.33 µM.
Turning to `CC(C)C(NC(=O)c1ccco1)C(=O)NCC(c1ccccc1Cl)c1c[nH]c2ccccc12` (single isomer, unassigned) [Compound 4-RS], the inhibition constant Ki on CB1R [2] (separated isomer RS, read-out: Ki (μM) RS) is 8.46 µM.
Turning to `CC(=O)NC(CC(=O)NCC(c1ccccc1Cl)c1c[nH]c2ccccc12)c1ccc(C)cc1` (centres unmarked) [Compound 14], the “activity (agonism, antagonism, inverse agonism) properties” value on CB1R [1] was “inverse agonists”. Moreover, the Ki at CB1R [2] (setting [4]) was 0.938 µM; on CB1R [2] (setting [6]) it was 1.2 µM.
Consider `Cc1c(C(=O)NN2CCCCC2)nn(-c2ccc(Cl)cc2Cl)c1-c1ccc(Cl)cc1` [Rimonabant, reference compound], for which, in the series on mice, the “inducing CB1R-mediated hyperactivity (activity profile)” value is given as “induced a marked increase in the activity profile”.
In the case of `N#Cc1ccc(CC(C#N)(Cc2ccc(C#N)cc2)c2nc(-c3ccc(Cl)c(Cl)c3)cs2)cc1` [Compound 10], the “activity (agonism, antagonism, inverse agonism) properties” value at CB1R [1] was “positive allosteric modulator (PAM)”. Further, the values for the Ki on CB1R [2] (setting [4]) and on CB1R [2] (setting [5]) were 0.414 µM and about 0.4 µM, respectively.
In the case of `CC1=C(C(=O)Nc2ccccc2C(F)(F)F)C(c2cccc(Oc3ccccc3)c2)NC(=S)N1` (single isomer, unassigned) [Compound 2-R], at CB1R [2] (setting [7]), the Ki is 4 µM.
Turning to `CC(C)C(NC(=O)c1ccco1)C(=O)NCC(c1ccccc1Cl)c1c[nH]c2ccccc12` (single isomer, unassigned) [Compound 4-SR], in series [3] (mice, 10, 20, 50 mg/kg ip), the “brain penetrance (brain levels vs serum levels)” value is “markedly reduced brain penetrance”. The Ki at CB1R [2] (separated isomer SR, read-out: Ki (μM) SR) was 0.48 µM.
With `CC(C)C(NC(=O)c1ccco1)C(=O)NCC(c1ccccc1Cl)c1c[nH]c2ccccc12` (single isomer, unassigned) [Compound 4-RR], in series [3] (mice, 10, 20, 50 mg/kg ip), the “brain penetrance (brain levels vs serum levels)” value is reported as “markedly reduced brain penetrance”. For the same compound, the inhibition constant (Ki) at CB1R [2] (separated isomer RR, read-out: Ki (μM) RR) amounted to 0.54 µM.
Consider `CC(=O)c1cccc(S(=O)(=O)NCCC(=O)NCC(c2ccccc2Cl)c2c[nH]c3ccccc23)c1` (centres unmarked) [Compound 3], for which the Ki on CB1R [2] (setting [4]) was 1.8 µM; on CB1R [2] (setting [6]), 1.1 µM.
`CC(=O)Nc1ccc(C)c(S(=O)(=O)NCC(c2ccccc2Cl)c2c[nH]c3ccccc23)c1` (centres unmarked) [Compound 13]: the Ki at CB1R [2] (setting [4]) was determined as 6.5 µM.
Take `CC(C)C(NC(=O)c1ccco1)C(=O)NCC(c1ccccc1Cl)c1c[nH]c2ccccc12` (single isomer, unassigned) [Compound 4-SS]: on CB1R [2] (separated isomer SS, read-out: Ki (μM) SS), the Ki is 1.66 µM.
